The values below come from patent publication US20240294572A1, “Antimicrobial Peptides” (priority 2021, published 2024).

Series [1] concerns human red blood cells (hRBCs). It counts as cell-based. The following applies: red cells of human, 1 h. As for the experimental part:
Hemolytic assays of peptides were performed as described (Lakshmaiah, et al. (2020) Proc. Natl. Acad. Sci., 117:19446-19454). Briefly, human red blood cells (hRBCs) were obtained from UNMC Blood Bank. The cells were washed 3× with isotonic saline (0.9% NaCl) and diluted to 2% (v/v). Peptides at various concentrations were added to the 2% blood cells and incubated at 37° C. for 1 hour. Post-incubation, the plates were spun at 2000 rpm for 10 minutes; aliquots of the supernatant were carefully transferred to a fresh 96-well microplate. The amount of cells lysed is proportional to the hemoglobin released and was measured at 545 nm using a ChroMate® microplate reader (Awareness Technology, FL). The percent lysis was calculated by assuming 100% release when human blood cells were treated with 1% Triton™ X-100, and 0% release when incubated with PBS. The peptide concentration that caused 50% lysis of hRBCs is defined as HC50. The cell selectivity index (CSI) was calculated as the ratio between HC50 and the MIC of the corresponding peptide against MRSA.

Series [2] concerns clinical strains of S. aureus, including USA200, USA400, Newman, and Mu50. It counts as cell-based. As for the experimental part: (§1) The antibacterial activity of peptides was evaluated using a standard broth microdilution protocol (Clinical Laboratories Standards Institute (CLSI): M07-A10. Methods for Dilution Antimicrobial Susceptibility Tests for Bacteria that grow aerobically; Approved Standard, Tenth Edition, 2015) with minor modifications as described (Mishra, et al. (2019) Proc. Natl. Acad. Sci., 116:13517-13522). In brief, peptides (10 μL per well) with 2-fold dilutions were made in 96-well polystyrene microplates. Subsequently, the logarithmic phase bacterial cultures (i.e., optical density at 600 nm ˜0.5) were diluted to 0.001 OD and aliquoted to 90 μL per well. The plates were incubated overnight at 37°° C. Bacterial controls were treated with water, and the wells containing only the TSB media were used as blank. Positive controls included the parent peptide LL-37 as well as KR12. Post incubation, the plates were read at 630 nm using ChroMate® 4300 Microplate Reader (Awareness Technology, FL).

The subject of series [3] is S. aureus Newman. It counts as cell-based. As for the experimental part: as §1
Series [4] relates to S. aureus USA400. The format is cell-based. As for the experimental part:
as §1

Series [5] deals with S. aureus Mu50. It counts as cell-based. The protocol: as §1
Series [6] relates to S. aureus USA200. It counts as cell-based. As for the experimental part:
as §1

Series [7] concerns Klebsiella pneumonia ATCC 13883. Kind of series: Antibacterial broth microdilution MIC. The format is cell-based. The protocol: as §1
On the technique in general: Dilution methods test growth across graded concentrations, often in twofold steps.

Series [8] concerns S. aureus USA300 LAC. It counts as cell-based. The protocol:
as §1
To study the influence of medium conditions on the antimicrobial activity of peptides against S. aureus USA300, different pH, sodium chloride (NaCl), human sera were included into the antibacterial assays. Control experiments in TSB without any additions (pH 7.4) were set up in the same manner. In addition, antimicrobial activities of human LL-37, KR12, and C10-KR8d were compared in 10%, 50%, and 100% TSB as well as in TSB and MHB using E. coli ATCC 25922 and S. aureus USA300 LAC.

For series [9], the system named is HaCaT cells. It counts as cell-based, human. The protocol: Peptides were assessed for potential cytotoxicity using HaCaT cells (Addexbio Technologies, CA). Briefly, cells were seeded at a density of 1×10^4 per well in a tissue culture 96-well plate. DMEM was supplemented with 10% fetal bovine serum (FBS) and incubated at 37° C. in a 5% CO2 atmosphere for 24 hours. Culture medium was aspirated and replaced with fresh serum free media. Cells were exposed to different concentrations of peptides for 1 hour at 37° C. in a 5% CO2 atmosphere. Post-incubation, the cells were washed and incubated with 100 μL of DMEM media containing 20 μL of MTS reagent for 2 hours at 37° C. Absorbance was read at 492 nm using a ChroMate® microplate reader (Awareness Technology, FL).

Series [10] deals with S. aureus USA300 LAC. Put plainly: Bacterial resistance development, multiple passage experiment. It counts as cell-based. The settings on record: 14 passages/days at sub-MIC. The protocol: This experiment was performed similar to the MIC determination with a few modifications as described (Mishra, et al. (2019) Proc. Natl. Acad. Sci., 116:13517-13522). In short, an exponential phase S. aureus USA300 culture (i.e., optical density at 600 nm≈0.5) was diluted and partitioned into a 96-well polystyrene microplate with ˜10^5 bacteria per well (90 μL aliquots). After treatment with 10 μL of peptide or nafcillin solutions at various concentrations, microplates were incubated at 37° C. overnight and read on a ChroMate® 4300 Microplate Reader at 630 nm (Awareness Technology, FL). Of the wells with sub-MIC levels of the peptides that retained growth, approximately half of the control wells were again reinoculated in fresh TSB with sub-MIC concertation of peptides or antibiotics to attain exponential phase for MIC determination. Up to 15 serial passages of the bacteria cultures were conducted. The increase in the fold change (MIC on given passage/MIC recorded in first day of passage) was used to determine the degree of drug resistance.

Series [11] deals with S. aureus USA300. Kind of series: Bacterial membrane depolarization (DiBAC4(3)). It counts as cell-based. The following applies: 3.1, 6.25, 12.5, and 25 μM; 40 minutes. The protocol:
The experiment was conducted as described (Marks, et al. (2013) PLOS One 8:e63158). In brief, an overnight culture of S. aureus USA300 was subcultured in a fresh TSB medium and grown to the exponential phase. Cells were spun using centrifugation, washed 2× with PBS, resuspended in twice the volume of PBS containing 25 mM glucose, and incubated at 37° C. for 15 minute. For membrane depolarization measurements, 500 nM (final concentration) of the dye DiBAC4 (3) bis(1,3-dibutylbarbituric acid) trimethine oxonol (ANASPEC, CA) was added, and the reaction mixture was vortexed gently. Aliquots of 90 μL of the energized bacteria solution were loaded to the wells, and the plate was fed into a FLUOstar® Omega microplate reader. Fluorescence was read for 20 minutes at excitation and emission wavelengths of 485 and 520 nm, respectively, to get dye normalization. Then, 10 μL of the peptide solution was added and gently mixed. Fluorescence readings were recorded for 40 minutes, where Triton™ X-100 (0.1%) was used as a positive control.

Molecules are shown by their SMILES. ≈ marks a conversion by molar mass, not a printed value. Residues, ends and D or L forms follow the SMILES beside them. *: point of attachment. Octanoyl = CCCCCCCC(=O)*

On to `CCCCCCCC(=O)N[C@@H](CCCCN)C(=O)N[C@@H](CCCNC(=N)N)C(=O)N[C@H](C(=O)N[C@@H](Cc1c[nH]c2ccccc12)C(=O)N[C@@H](CCC(N)=O)C(=O)N[C@@H](CCCNC(=N)N)C(=O)N[C@H](C(=O)N[C@@H](CCCCN)C(=O)N[C@@H](CC(=O)O)C(=O)N[C@@H](Cc1ccccc1)C(N)=O)[C@@H](C)CC)[C@@H](C)CC` [Peptide C8-KR10] (Octanoyl-KRIWQRIKDF-NH2), for which the concentration for 50% haemolysis (HC50) (commonly the concentration giving 50% haemolysis) in series [1] was 250 µM. Further, in series [2], the “MIC against clinical strains of S. aureus” value fell in the range of 1.6 to 6.2 µM. Further, the “Minimal inhibitory concentration, Newman” value in series [3] came to 6.2 µM (≈ 9.39 µg/mL). In [4], the “Minimal inhibitory concentration, USA400” value was found to be 3.1 µM (≈ 4.7 µg/mL). Also, the “Minimal inhibitory concentration, Mu50” value in series [5] is 6.2 µM (≈ 9.39 µg/mL). Also, the “Minimal inhibitory concentration, USA200” value in series [6] amounted to 6.2 µM (≈ 9.39 µg/mL). The “MIC (μM) KP” value in series [7] amounted to 25 µM (≈ 37.9 µg/mL). The “MIC (μM) SA” value in series [8] (USA300) was 3.1 to 6.2 µM. Moreover, in [8] (USA300, pH 6.8), the “Minimal inhibitory concentration (MIC), pH = 6.8” value worked out at 12.5 μM. Besides, the “relative toxicity to HaCaT cells” value in series [9] is on record as “slightly less toxic than C8-KR10d”.
For the compound `CCOc1ccc2ccccc2c1C(=O)N[C@@H]1C(=O)N2[C@@H]1SC(C)(C)[C@@H]2C(=O)O` [nafcillin, reference compound], the “MIC increase in multiple passage experiment” value in [10] was “over 30 fold”.
As for `CCCCCCCCCC(=O)N[C@@H](Cc1c[nH]c2ccccc12)C(=O)N[C@H](CC(N)=O)C(=O)N[C@@H](CC(=O)O)C(=O)N[C@@H]1C(=O)NCC(=O)N[C@@H](CCCN)C(=O)N[C@@H](CC(=O)O)C(=O)N[C@H](C)C(=O)N[C@@H](CC(=O)O)C(=O)NCC(=O)N[C@H](CO)C(=O)N[C@@H]([C@H](C)CC(=O)O)C(=O)N[C@@H](CC(=O)c2ccccc2N)C(=O)O[C@@H]1C` [daptomycin, reference compound], the “membrane depolarization ability (order)” value in series [11] was “Triton™ X-100>17BIPHE2>C10-KR8d>daptomycin”.
